Measurements published in patent US9556165B2 (priority 2012, dated 2017).
Values after ≈ are worked out from the molar mass of the structure shown. Where two headings read alike, the source gives them in different places.

Experiments:
Assay type in all cases: cell-based
strain 19 = test: MIC determination, broth microdilution (CLSI)
[1] = system: P. aeruginosa 2297 (AmpC wt); test: MIC determination, broth microdilution (CLSI); settings: Pseudomonas aeruginosa, strain 7
S. maltophilia ICB7569 = test: MIC determination, broth microdilution (CLSI); settings: Stenotrophomonas maltophilia, ICB7569, strain 10
C. freundii K21/3034 = test: MIC determination, broth microdilution (CLSI); settings: Citrobacter freundii, K21/3034, strain 4
A. baumannii ATCC15308 = test: MIC determination, broth microdilution (CLSI); settings: Acinetobacter baumannii, ATCC15308, strain 9
M. morganii 126/3048 = test: MIC determination, broth microdilution (CLSI); settings: Morganella morganii, 126/3048, strain 5
strain 21 = test: MIC determination, broth microdilution (CLSI)
[2] = system: P. aeruginosa 2297-con (AmpC derepressed); test: MIC determination, broth microdilution (CLSI); settings: Pseudomonas aeruginosa, read-out: strain 8 MIC, strain 8
P. aeruginosa PAO1 = test: MIC determination, broth microdilution (CLSI); settings: Pseudomonas aeruginosa, PAO1, strain 6
S. pneumoniae 113 = test: MIC determination, broth microdilution (CLSI)
strain 20 = test: MIC determination, broth microdilution (CLSI)
E. coli ATCC25922 = test: MIC determination, broth microdilution (CLSI); settings: Escherichia coli, ATCC25922, strain 1
E. coli J62-TEM-3 = test: MIC determination, broth microdilution (CLSI); settings: Escherichia coli
K. pneumoniae 60 = test: MIC determination, broth microdilution (CLSI); settings: Klebsiella pneumoniae, 60, strain 2
E. coli J62 = test: MIC determination, broth microdilution (CLSI); settings: Escherichia coli, J62, strain 17
E. cloacae 34654 = test: MIC determination, broth microdilution (CLSI); settings: Enterobacter cloacae, 34654, strain 3
H. influenzae ATCC 49247 = test: MIC determination, broth microdilution (CLSI); settings: Haemophilus influenzae
M. catarrhalis ICB489 = test: MIC determination, broth microdilution (CLSI); settings: Moraxella catarrhalis, ICB489, strain 12
B. fragilis 6688 = test: MIC determination, broth microdilution (CLSI); settings: Bacteroides fragilis, 6688, strain 15
S. aureus 133 = test: MIC determination, broth microdilution (CLSI); settings: Staphylococcus aureus, 133, strain 11; read-out: strain 11 MIC
Bacteria = test: MIC determination in combination with β-lactamase inhibitors (constant 4 μg/mL)
C. perfringens DSM756 = test: microbe, parasite or virus in culture; settings: Clostridium perfringens, DSM756, read-out: MIC strain 16 (C. perfringens DSM756), strain 16; broth microdilution
[3] = Streptococcus pneumoniae, 113, strain 14, read-out: strain 14 MIC
[4] = J62TEM3, read-out: strain 18 MIC, strain 18
[5] = ATCC49247, strain 13, read-out: strain 13 MIC

Row | Structure (SMILES) | MIC (strain 19) [µg/mL] | MIC [1] [µg/mL] | MIC (S. maltophilia ICB7569) [µg/mL] | MIC (C. freundii K21/3034) [µg/mL] | MIC (A. baumannii ATCC15308) [µg/mL] | MIC (M. morganii 126/3048) [µg/mL] | MIC (strain 21) [µg/mL] | MIC [2] [µg/mL] | MIC (P. aeruginosa PAO1) [µg/mL] | MIC (S. pneumoniae 113; [3]) [µg/mL] | MIC (strain 20) [µg/mL] | MIC (E. coli ATCC25922) [µg/mL] | MIC (E. coli J62-TEM-3; [4]) [µg/mL] | MIC (K. pneumoniae 60) [µg/mL] | MIC (E. coli J62; read-out: strain 17 MIC) [µg/mL] | MIC (E. cloacae 34654) [µg/mL] | MIC (H. influenzae ATCC 49247; [5]) [µg/mL] | MIC (M. catarrhalis ICB489) [µg/mL] | MIC (B. fragilis 6688; read-out: strain 15 MIC) [µg/mL] | MIC (S. aureus 133) [µg/mL] | other results
1 | C[C@H]1[C@H](NC(=O)/C(=N\OCCSc2ccc(C(=N)N)cc2)c2csc(N)n2)C(=O)N1S(=O)(=O)O [Example 6, (2S,3S)-3-{[(2Z)-2-(2-Amino-1,3-thiazol-4-yl)-2-({2-[(4-carbamimidoylphenyl)sulfanyl]ethoxy}imino)acetyl]amino}-2-methyl-4-oxoazetidine-1-sulfonic acid] | 0.25 (≈ 0.474 µM) | 8 (≈ 15.2 µM) | 32 (≈ 60.7 µM) | ≤ 0.125 | 1 (≈ 1.9 µM) | ≤ 0.125 | 0.25 (≈ 0.474 µM) | 16 (≈ 30.3 µM) | 4 (≈ 7.58 µM) | 4 (≈ 7.58 µM) | 0.25 (≈ 0.474 µM) | 0.125 (≈ 0.237 µM) | 16 (≈ 30.3 µM) | 0.25 (≈ 0.474 µM) | 0.25 (≈ 0.474 µM) | 0.125 (≈ 0.237 µM) | – | – | – | – | –
2 | C[C@H]1[C@H](NC(=O)/C(=N\OCCOc2ccc(C(=N)N)cc2F)c2csc(N)n2)C(=O)N1S(=O)(=O)O [Example 19, (2S,3S)-3-{[(2Z)-2-(2-Amino-1,3-thiazol-4-yl)-2-{[2-(4-carbamimidoyl-2-fluorophenoxy)ethoxy]imino}acetyl]amino}-2-methyl-4-oxoazetidine-1-sulfonic acid] | 0.5 (≈ 0.944 µM) | 16 (≈ 30.2 µM) | – | 0.5 (≈ 0.944 µM) | 4 (≈ 7.55 µM) | 0.25 (≈ 0.472 µM) | 1 (≈ 1.89 µM) | – | 8 (≈ 15.1 µM) | 16 (≈ 30.2 µM) | 1 (≈ 1.89 µM) | 0.5 (≈ 0.944 µM) | 32 (≈ 60.4 µM) | 0.125 (≈ 0.236 µM) | 0.5 (≈ 0.944 µM) | 0.5 (≈ 0.944 µM) | – | – | – | – | –
3 | C[C@@H]1[C@H](NC(=O)/C(=N\OCCOc2ccc(C(=N)N)cc2)c2csc(N)n2)C(=O)N1OS(=O)(=O)O [Example 10, (2Z)-2-(2-Amino-1,3-thiazol-4-yl)-2-{[2-(4-carbamimidoylphenoxy)ethoxy]imino}-N-[(2R,3S)-2-methyl-4-oxo-1-(sulfooxy)azetidin-3-yl]ethanamide] | 0.5 (≈ 0.948 µM) | 8 (≈ 15.2 µM) | – | 1 (≈ 1.9 µM) | 8 (≈ 15.2 µM) | 4 (≈ 7.58 µM) | 0.5 (≈ 0.948 µM) | – | 8 (≈ 15.2 µM) | 2 (≈ 3.79 µM) | 0.5 (≈ 0.948 µM) | 0.5 (≈ 0.948 µM) | – | 2 (≈ 3.79 µM) | 0.5 (≈ 0.948 µM) | 1 (≈ 1.9 µM) | – | – | – | – | –
4 | C[C@H]1[C@H](NC(=O)/C(=N\OCCCOc2ccc(C(=N)N)cc2)c2csc(N)n2)C(=O)N1S(=O)(=O)O [Example 37, (2S,3S)-3-{[(2Z)-2-(2-Amino-1,3-thiazol-4-yl)-2-[{3-(4-carbamimidoylphenoxy)propoxy]imino}acetyl]amino}-2-methyl-4-oxoazetidine-1-sulfonic acid] | 2 (≈ 3.81 µM) | 8 (≈ 15.2 µM) | – | 2 (≈ 3.81 µM) | 4 (≈ 7.61 µM) | 1 (≈ 1.9 µM) | 2 (≈ 3.81 µM) | – | 8 (≈ 15.2 µM) | 4 (≈ 7.61 µM) | 2 (≈ 3.81 µM) | 2 (≈ 3.81 µM) | – | 2 (≈ 3.81 µM) | 4 (≈ 7.61 µM) | 2 (≈ 3.81 µM) | 1 (≈ 1.9 µM) | 0.5 (≈ 0.951 µM) | 16 (≈ 30.4 µM) | 1 (≈ 1.9 µM) | –
5 | C[C@H]1[C@H](NC(=O)/C(=N\OCCOc2ccc(C(=N)NO)cc2)c2csc(N)n2)C(=O)N1S(=O)(=O)O [Example 21, (2S,3S)-3-{[(2Z)-2-(2-Amino-1,3-thiazol-4-yl)-2-({2-[4-(N-hydroxycarbamimidoyl)phenoxy]ethoxy}imino)acetyl]amino}-2-methyl-4-oxoazetidine-1-sulfonic acid] | 0.5 (≈ 0.948 µM) | 16 (≈ 30.3 µM) | – | 0.25 (≈ 0.474 µM) | 8 (≈ 15.2 µM) | 0.5 (≈ 0.948 µM) | 1 (≈ 1.9 µM) | – | 16 (≈ 30.3 µM) | 32 (≈ 60.7 µM) | 1 (≈ 1.9 µM) | 1 (≈ 1.9 µM) | 16 (≈ 30.3 µM) | 0.25 (≈ 0.474 µM) | 2 (≈ 3.79 µM) | 1 (≈ 1.9 µM) | 1 (≈ 1.9 µM) | 0.25 (≈ 0.474 µM) | 32 (≈ 60.7 µM) | 0.5 (≈ 0.948 µM) | –
6 | CC1(C)[C@H](NC(=O)/C(=N\OCCOc2ccc(C(=N)N)nn2)c2csc(N)n2)C(=O)N1OS(=O)(=O)O [Example 29, (2Z)-2-(2-Amino-1,3-thiazol-4-yl)-2-({2-[(6-carbamimidoylpyridazin-3-yl)oxy]-ethoxy}imino)-N-[(3S)-2,2-dimethyl-4-oxo-1-(sulfooxy)azetidin-3-yl]ethanamide] | 0.5 (≈ 0.92 µM) | 16 (≈ 29.4 µM) | 8 (≈ 14.7 µM) | 0.25 (≈ 0.46 µM) | 2 (≈ 3.68 µM) | 0.25 (≈ 0.46 µM) | 0.5 (≈ 0.92 µM) | 8 (≈ 14.7 µM) | 8 (≈ 14.7 µM) | 4 (≈ 7.36 µM) | 0.5 (≈ 0.92 µM) | 0.25 (≈ 0.46 µM) | 8 (≈ 14.7 µM) | 0.25 (≈ 0.46 µM) | 0.5 (≈ 0.92 µM) | 0.5 (≈ 0.92 µM) | – | – | – | – | –
7 | C[C@H]1[C@H](NC(=O)/C(=N\OCc2cc(C(=N)N)cs2)c2csc(N)n2)C(=O)N1S(=O)(=O)O [Example 32, (2S,3S)-3-{[(2Z)-2-(2-Amino-1,3-thiazol-4-yl)-2-(2-[(4-carbamimidoylthiophen-2-yl)methoxy]imino)acetyl]amino}-2-methyl-4-oxoazetidine-1-sulfonic acid] | 1 (≈ 2.05 µM) | 32 (≈ 65.6 µM) | – | 0.5 (≈ 1.03 µM) | 2 (≈ 4.1 µM) | 0.5 (≈ 1.03 µM) | 1 (≈ 2.05 µM) | – | 16 (≈ 32.8 µM) | 8 (≈ 16.4 µM) | 2 (≈ 4.1 µM) | 1 (≈ 2.05 µM) | 32 (≈ 65.6 µM) | – | 2 (≈ 4.1 µM) | 0.5 (≈ 1.03 µM) | 0.5 (≈ 1.03 µM) | 0.75 (≈ 1.54 µM) | 3 (≈ 6.15 µM) | ≤ 0.063 | –
8 | CC1(C)[C@H](NC(=O)/C(=N\O[C@@H](COc2ccc(C(=N)NC(CN)CN)cc2)C(=O)O)c2csc(N)n2)C(=O)N1OS(=O)(=O)O [Example 102, (2S)-2-({[(1Z)-1-(2-Amino-1,3-thiazol-4-yl)-2-{[(3S)-2,2-dimethyl-4-oxo-1-(sulfooxy)azetidin-3-yl]amino}-2-oxoethylidene]amino}oxy)-3-{4-[N-(1,3-diaminopropan-2-yl)carbamimidoyl]phenoxy}propanoic acid] | – | 2 (≈ 3.04 µM) | 4 (≈ 6.08 µM) | ≤ 0.063 | 4 (≈ 6.08 µM) | ≤ 0.063 | – | 2 (≈ 3.04 µM) | 1 (≈ 1.52 µM) | – | – | 0.125 (≈ 0.19 µM) | – | ≤ 0.063 | – | 0.25 (≈ 0.38 µM) | – | – | – | ≤ 0.063 | MIC (H. influenzae ATCC 49247; ATCC49247, strain 12, broth microdilution, read-out: MIC strain 12 (H. influenzae ATCC 49247)): ≤ 0.063 µg/mL; MIC strain 19 (E. coli J62-TEM-3 + 4 μg/mL clavulanic acid) (Bacteria; strain 19, E. coli J62-TEM-3 + 4 μg/mL clavulanic acid): ≦0.063 mg/L; MIC strain 20 (E. coli J62-TEM-3 + 4 μg/mL sulbactam) (Bacteria; strain 20, E. coli J62-TEM-3 + 4 μg/mL sulbactam): ≦0.063 mg/L; MIC strain 21 (E. coli J62-TEM-3 + 4 μg/mL tazobactam) (Bacteria; strain 21, E. coli J62-TEM-3 + 4 μg/mL tazobactam): 0.125 µg/mL; MIC (C. perfringens DSM756): 2 µg/mL (≈ 3.04 µM); MIC (S. pneumoniae 113; Streptococcus pneumoniae, 113, strain 13, broth microdilution, read-out: MIC strain 13 (S. pneumoniae 113)): 0.5 µg/mL (≈ 0.76 µM); MIC (B. fragilis 6688; broth microdilution, read-out: MIC strain 15 (B. fragilis 6688)): 8 µg/mL (≈ 12.2 µM); MIC (E. coli J62-TEM-3; J62TEM3, read-out: MIC strain 18 (E. coli J62-TEM-3), strain 18, broth microdilution): 4 µg/mL (≈ 6.08 µM); MIC (E. coli J62; broth microdilution, read-out: MIC strain 17 (E. coli J62)): 0.125 µg/mL (≈ 0.19 µM)
9 | CC1(C)[C@H](NC(=O)/C(=N\OCCOc2ccc(C(=N)N)c(O)c2)c2csc(N)n2)C(=O)N1OS(=O)(=O)O [Example 1, (2Z)-2-(2-Amino-1,3-thiazol-4-yl)-2-{[2-(4-carbamimidoyl-3-hydroxyphenoxy)ethoxy]imino}-N-[(3S)-2,2-dimethyl-4-oxo-1-(sulfooxy)azetidin-3-yl]ethanamide] | 0.25 (≈ 0.448 µM) | 8 (≈ 14.3 µM) | 8 (≈ 14.3 µM) | 0.5 (≈ 0.897 µM) | 8 (≈ 14.3 µM) | 0.125 (≈ 0.224 µM) | 0.25 (≈ 0.448 µM) | 4 (≈ 7.17 µM) | 4 (≈ 7.17 µM) | 16 (≈ 28.7 µM) | 0.25 (≈ 0.448 µM) | 0.25 (≈ 0.448 µM) | 16 (≈ 28.7 µM) | 0.25 (≈ 0.448 µM) | 0.25 (≈ 0.448 µM) | 0.5 (≈ 0.897 µM) | – | – | – | – | –
